Measurements: US20080269251A1, “Substituted Pyrazinone Derivatives as Alpha2C-Adrenoreceptor Antagonists” (priority 2005, published 2008)

Assays:
[1] = target: T1, human adrenergic-α2A receptor (Homo sapiens, UniProt P08913); test: Radioligand binding experiment for hα2A-adrenergic receptor ([3H]raulwolscine); settings: [3H]raulwolscine 1 nM, 60 minutes at 25° C.; read-out: h-α2A pIC50 (converted)
T1 construct: expressed in transfected cells; host or cells: CHO cells, stably transfected; membrane preparation
T1 sequence (P08913 1-465): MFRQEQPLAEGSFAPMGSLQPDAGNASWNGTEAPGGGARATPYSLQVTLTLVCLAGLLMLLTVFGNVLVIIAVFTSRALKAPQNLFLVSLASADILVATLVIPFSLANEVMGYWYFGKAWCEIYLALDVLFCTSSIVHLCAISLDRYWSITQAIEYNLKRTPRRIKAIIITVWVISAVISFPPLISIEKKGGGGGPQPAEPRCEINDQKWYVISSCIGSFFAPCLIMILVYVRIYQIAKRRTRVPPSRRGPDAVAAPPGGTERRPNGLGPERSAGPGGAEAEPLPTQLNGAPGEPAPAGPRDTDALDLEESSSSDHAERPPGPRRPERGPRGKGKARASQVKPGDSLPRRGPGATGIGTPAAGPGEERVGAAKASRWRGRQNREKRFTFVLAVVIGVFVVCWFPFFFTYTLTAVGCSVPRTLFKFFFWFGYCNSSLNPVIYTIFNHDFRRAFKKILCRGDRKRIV
How it was run: (§1)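 CHO membranes expressing human α2A or α2C receptors were incubated with 1 nM [^3H]raulwolscine for 60 min at 25° C in glycylglycine 25 mM, pH 8.0, then filtered. Nonspecific binding was defined with 1 μM oxymetazoline for α2A and 1 μM spiroxatrine for α2C. pIC50 came from sigmoidal competition curves.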

[2] = target: T2, human adrenergic-α2C receptor (Homo sapiens, UniProt P18825); test: Radioligand binding experiment for hα2C-adrenoceptor ([3H]raulwolscine); settings: [3H]raulwolscine 1 nM, 60 minutes at 25° C.; read-out: h-α2C pIC50 (converted)
T2 construct: expressed in transfected cells; host or cells: CHO cells, stably transfected; membrane preparation
T2 sequence (P18825 1-462): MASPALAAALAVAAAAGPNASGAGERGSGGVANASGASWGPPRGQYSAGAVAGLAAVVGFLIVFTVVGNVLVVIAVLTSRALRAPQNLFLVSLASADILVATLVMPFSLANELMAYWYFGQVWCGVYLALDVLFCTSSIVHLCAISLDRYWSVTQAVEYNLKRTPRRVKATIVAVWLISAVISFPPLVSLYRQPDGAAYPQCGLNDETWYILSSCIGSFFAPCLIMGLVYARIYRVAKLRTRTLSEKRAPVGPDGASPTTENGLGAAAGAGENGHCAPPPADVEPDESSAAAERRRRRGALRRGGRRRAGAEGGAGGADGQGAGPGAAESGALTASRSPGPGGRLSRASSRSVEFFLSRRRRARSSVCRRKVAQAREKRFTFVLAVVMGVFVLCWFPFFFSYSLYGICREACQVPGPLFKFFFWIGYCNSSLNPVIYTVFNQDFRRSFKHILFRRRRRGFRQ
How it was run: as §1

5HT-transporter = target: T3, 5HT-transporter (Homo sapiens, UniProt P31645); test: Binding experiment for the 5HT-transporter ([3H]paroxetine, human platelet membranes); settings: [3H]paroxetine 0.5 nM, 60 min at 25° C., read-out: h-5HTT pIC50 (converted)
T3 construct: Human platelet membranes (Oceanix Biosciences Corporation, Hanover, Md., USA) were thawed; tissue Oceanix Biosciences Corporation, Hanover, Md., USA; host or cells: human platelet membranes
How it was run: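 Competition binding of [3H]paroxetine to human platelet membranes in Tris-HCl 50 mM with 120 mM NaCl and 5 mM KCl; bound radioligand separated by GF/B filtration and counted.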

T3 sequence (P31645 whole entry): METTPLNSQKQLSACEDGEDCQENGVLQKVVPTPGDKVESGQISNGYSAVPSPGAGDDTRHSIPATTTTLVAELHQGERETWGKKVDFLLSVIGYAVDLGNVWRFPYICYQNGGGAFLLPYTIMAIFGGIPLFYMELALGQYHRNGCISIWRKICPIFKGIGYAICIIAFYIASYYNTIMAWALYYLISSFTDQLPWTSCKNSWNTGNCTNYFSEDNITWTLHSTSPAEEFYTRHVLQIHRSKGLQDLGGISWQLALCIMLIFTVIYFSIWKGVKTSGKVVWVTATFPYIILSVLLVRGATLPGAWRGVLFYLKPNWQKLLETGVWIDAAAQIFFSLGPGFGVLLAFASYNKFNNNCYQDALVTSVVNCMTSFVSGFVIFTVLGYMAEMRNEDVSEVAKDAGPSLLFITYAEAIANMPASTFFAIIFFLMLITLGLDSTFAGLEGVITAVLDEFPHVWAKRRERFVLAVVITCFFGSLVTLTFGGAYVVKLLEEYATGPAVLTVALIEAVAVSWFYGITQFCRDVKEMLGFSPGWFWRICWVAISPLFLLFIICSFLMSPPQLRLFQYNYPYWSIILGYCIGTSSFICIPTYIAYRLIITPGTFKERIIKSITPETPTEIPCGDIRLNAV

IC50 [1] | IC50 [2] | IC50 (5HT-transporter) | melting point | Structure (SMILES)
100 nM | 25.1 nM | 63.1 nM | 271.4 °C | O=C(c1ccc(-n2ccnc(NC3CCN(Cc4ccc5ccccc5c4)CC3)c2=O)cc1)N1CCOCC1 [2-08]
200 nM | 25.1 nM | 158 nM | 161.2 °C | O=c1c(NC2CCN(Cc3ccc4ccccc4c3)CC2)nccn1CCN1CCCCC1 [2-10]
79.4 nM | 3.98 nM | 3.98 nM | 172.8 °C | O=C1c2ccccc2C(=O)N1C/C=C/Cn1ccnc(NC2CCN(Cc3ccc4ccccc4c3)CC2)c1=O [2-18]
126 nM | 3.98 nM | 12.6 nM | 76.5 °C | O=C1c2ccccc2C(=O)N1CCCn1ccnc(NC2CCN(Cc3ccc4ccccc4c3)CC2)c1=O [2-19]
398 nM | 7.94 nM | 15.8 nM | 96.3 °C | O=C1c2ccccc2C(=O)N1CC#CCn1ccnc(NC2CCN(Cc3ccc4ccccc4c3)CC2)c1=O [2-20]
100 nM | 79.4 nM | 39.8 nM | 196.5 °C | COC(=O)c1ccc(-n2ccnc(NC3CCN(Cc4ccc5ccccc5c4)CC3)c2=O)cc1 [3-05]
200 nM | 3.98 nM | 5.01 nM | 153.9 °C | O=c1c(NC2CCN(Cc3ccc4ccccc4c3)CC2)nccn1-c1ccc(COCCN2CCOCC2)cc1 [3-13]
126 nM | 39.8 nM | 39.8 nM | 152.8 °C | O=c1c(NC2CCN(Cc3ccc4ccccc4c3)CC2)nccn1-c1ccsc1 [6-05]
398 nM | 50.1 nM | 100 nM | > 300 °C | O=c1c(NC2CCN(Cc3ccc4ccccc4c3)CC2)nccn1-c1cccnc1 [6-06]
200 nM | 63.1 nM | 100 nM | 125.1 °C | O=c1c(NC2CCN(Cc3ccc4ccccc4c3)CC2)nccn1-c1ccncc1 [6-07]
79.4 nM | 6.31 nM | 15.8 nM | 134.7 °C | O=c1c(NC2CCN(Cc3ccc4ccccc4c3)CC2)nccn1-c1ccc2c(c1)CN(Cc1ncc[nH]1)CC2 [6-14]
2000 nM | 63.1 nM | 1000 nM |  | O=C1c2ccccc2C(=O)N1CC#CCn1ccnc(NC2CCN(Cc3ccc4ccccc4n3)CC2)c1=O [9-18]
3160 nM | 398 nM | 398 nM |  | O=C(CCN(c1nccn(CCC(=O)c2ccccc2)c1=O)C1CCN(Cc2cnc3ccccc3c2)CC1)c1ccccc1 [9-20]
1260 nM | 200 nM | 2000 nM |  | CCOC(=O)CCCCn1ccnc(NC2CCN(Cc3cnc4ccccc4c3)CC2)c1=O [9-21]
398 nM | 1000 nM | 1260 nM |  | NCc1ccc(Cn2ccnc(N3CCN(Cc4cccc5ccccc45)CC3)c2=O)cc1 [9-23]
5010 nM | 398 nM | > 10000 nM |  | CN(C)C(=O)Cn1ccnc(N2CCN(Cc3cccc4ccccc34)CC2)c1=O [9-24]
631 nM | 398 nM | 1260 nM |  | CC(C)(C)OC(=O)NCc1ccc(Cn2ccnc(N3CCN(Cc4cccc5ccccc45)CC3)c2=O)cc1 [9-25]
501 nM | 1000 nM | 2510 nM |  | O=c1c(N2CCN(Cc3cccc4ccccc34)CC2)nccn1Cc1ccccc1 [9-26]
> 10000 nM | 794 nM | 631 nM |  | O=C1c2ccccc2C(=O)N1CCCn1ccnc(NC2CCN(Cc3cnc4ccccc4c3)CC2)c1=O [9-27]
> 10000 nM | 631 nM | 200 nM |  | O=C(CCN(c1nccn(CCC(=O)c2ccccc2)c1=O)C1CCN(Cc2ccnc3ccccc23)CC1)c1ccccc1 [9-28]
631 nM | 501 nM | > 10000 nM |  | O=c1c(N2CCN(Cc3ccc4ccccc4n3)CC2)nccn1Cc1ccccc1 [9-29]

Further lines, the compound ahead of its results:

Structure (SMILES) | IC50 [1] | IC50 [2] | IC50 (5HT-transporter) | melting point
CCCCNc1cccc(-n2ccnc(NC3CCN(Cc4ccc5ccccc5c4)CC3)c2=O)c1 [1-05] | 39.8 nM | 15.8 nM | 20 nM | 117.5 °C
CCCNC(=O)c1ccc(-n2ccnc(NC3CCN(Cc4ccc5ccccc5c4)CC3)c2=O)cc1 [1-09] | 200 nM | 39.8 nM | 20 nM | 210.1 °C
CCCC(=O)NCc1ccc(-n2ccnc(NC3CCN(Cc4ccc5ccccc5c4)CC3)c2=O)cc1F [1-26] | 398 nM | 7.94 nM | 7.94 nM | 95 °C
O=c1c(NC2CCN(Cc3ccc4ccccc4c3)CC2)nccn1-c1ccc(NCC2CCCO2)cc1 (stereo not drawn) [1-78] | 200 nM | 10 nM | 15.8 nM | > 300 °C
O=c1c(NC2CCN(Cc3ccc4ccccc4c3)CC2)nccn1-c1ccc(CNCC2CCCO2)cc1 (stereo not drawn) [1-79a] | 158 nM | 5.01 nM | 3.16 nM | > 300 °C
O=C(NCCN1CCCCC1)c1ccc(-n2ccnc(NC3CCN(Cc4ccc5ccccc5c4)CC3)c2=O)cc1 [1-88] | 79.4 nM | 25.1 nM | 3.16 nM | 172.3 °C
O=C(NCCN1CCOCC1)c1ccc(-n2ccnc(NC3CCN(Cc4ccc5ccccc5c4)CC3)c2=O)cc1 [1-91] | 316 nM | 63.1 nM | 15.8 nM | 271 °C
O=c1c(NC2CCN(Cc3ccc4ccccc4c3)CC2)nccn1-c1ccc(NCCN2CCOCC2)cc1 [1-92] | 316 nM | 15.8 nM | 12.6 nM | 195.3 °C
O=C(CCN1CCOCC1)Nc1ccc(-n2ccnc(NC3CCN(Cc4ccc5ccccc5c4)CC3)c2=O)cc1 [1-97] | 316 nM | 12.6 nM | 15.8 nM | 183.4 °C
C=CCSc1ncccc1C(=O)NCc1ccc(-n2ccnc(NC3CCN(Cc4ccc5ccccc5c4)CC3)c2=O)cc1 [1-102] | 316 nM | 63.1 nM | 15.8 nM | 117.7 °C
